For series [1], the system named is HCV Con1 subgenomic replicon of genotype 1b (GS4.1 cells). The series is described as follows: microbe, parasite or virus in culture. The class given is cell-based, HCV genotype 1b. To be noted: Hepatitis C virus; for EC50: 72 h.
A further series is described as follows: in vitro. The settings on record: human.
Series [2] concerns Huh-7-derived cell line (Zluc) that harbors an HCV genotype 1b replicon and a luciferase reporter gene. The series is described as follows: microbe, parasite or virus in culture. The settings on record: Hepatitis C virus, 72 h. In kind it is cell-based.
Series [3] shares this test system. Put plainly: microbe, parasite or virus in culture. The settings on record: Hepatitis C virus, 72 h. The class given is cell-based. The source holds these as a separate data set.
A short description of series [4]: Cytotoxicity (CC50) reported with the HCV replicon ELISA assay. The settings on record: human.

Our source for the IC50, EC50 and CC50 values is US8193372B2, “Phosphothiophene and phosphothiazole HCV polymerase inhibitors” (Idenix Pharmaceuticals, Inc., priority 2009, dated 2012).

As to `COP(=O)(Nc1cc(-c2ccc(-c3cc4ncccc4o3)cc2)sc1C(=O)O)c1ccc(C)cc1C` (stereo not drawn) [Compound 152], the IC50 in series [1] is under 0.1 µM. Further, the EC50 in series [1], in series [2] and in series [3] was under 0.1 µM throughout. In the series “in vitro”, this compound displayed a CC50 of over 8.3 µM.
For the compound `COP(=O)(Nc1cc(-c2ccc(F)cc2)sc1C(=O)O)c1ccc(C)cc1C` (stereo not drawn) [Compound 21, 2-Thiophenecarboxylic acid, 3-N-[(2,4-dimethyl-phenyl)-phosphonamidatemethyl ester]-5-(4-fluorophenyl)], the IC50 in series [1] was 0.1 to 8.3 µM. The figures for the EC50 in series [1], in series [2] and in series [3] were 0.1 to 8.3 µM, 0.1 to 8.3 µM and over 8.3 µM, respectively. In “in vitro”, the CC50 is over 8.3 µM.
In series [1], `COP(=O)(c1ccc(C)cc1C)N(C)c1cc(-c2ccc(F)cc2)sc1C(=O)O` (stereo not drawn) [Compound 32, 2-Thiophenecarboxylic acid, 3-N-methyl-N-[(2,4-dimethyl-phenyl)-phosphonamidatemethyl ester]-5-(4-fluorophenyl)] gave an IC50 of 0.1 to 8.3 µM. Besides, the EC50 in series [1] was 0.1 to 8.3 µM; in series [2], 0.1 to 8.3 µM; in series [3], over 8.3 µM. For the same compound, in the series “in vitro”, the CC50 was over 8.3 µM.
For the compound `COP(=O)(Nc1cc(-c2ccc(-c3cc4ncccn4n3)cc2)sc1C(=O)O)c1ccc(C)cc1C` (stereo not drawn) [Compound 169], the concentration giving a half-maximal response (EC50) in series [2] and in series [3] was under 0.1 µM in each case.
Regarding `COP(=O)(Nc1cc(-c2ccc(C(C)(C)C)cc2)sc1C(=O)O)c1ccc(C)cc1C` (stereo not drawn) [Compound 156], in series [1], the IC50 lay in the range of 0.1 to 8.3 µM. Moreover, the EC50 in series [1] was 0.1 to 8.3 µM; in series [2] it was 0.1 to 8.3 µM; in series [3] it was over 8.3 µM. Moreover, the CC50 in “in vitro” is over 8.3 µM.
In series [1], `Cc1ccc(P(=O)(O)Nc2cc(-c3ccc(F)cc3)sc2C(=O)O)c(C)c1` [Compound 1] gave an IC50 of 0.1 to 8.3 µM and an EC50 of over 8.3 µM. The compound further showed a CC50 at 72 hr in series [4] of over 8.3 µM.
In series [1], `COC(=O)c1sc(-c2ccc(F)cc2)cc1NP(=O)(OC(C)C)c1ccc(C)cc1C` (stereo not drawn) [Compound 171] returned an IC50 of over 8.3 µM and an EC50 of over 8.3 µM. In addition, in series [4], the CC50 at 72 hr is over 8.3 µM.
Turning to `Cc1ccc(P(=O)(Nc2cc(-c3ccc(Cl)cc3)sc2C(=O)O)OCc2ccccc2)c(C)c1` (stereo not drawn) [Compound 107], the EC50 in series [1] lay in the range of 0.1 to 8.3 µM. Also, the CC50 at 72 hr in series [4] is over 8.3 µM.
In turn, `CCOP(=O)(Nc1cc(-c2ccc(-c3cc4ncccn4n3)cc2)sc1C(=O)O)c1ccc(Cl)cc1Cl` (stereo not drawn) [Compound 11, 3-N-[(2,4-dichloro-phenyl)-phosphonamidateethyl ester]-5-(4-pyrazolo[1,5-a]pyrimidin-2-ylphenyl)-2-thiophenecarboxylic acid] yielded an IC50 in series [1] of under 0.1 µM. In addition, the results for the EC50 in series [1], in series [2] and in series [3] were under 0.1 µM, under 0.1 µM and 0.1 to 8.3 µM, respectively. In “in vitro”, this compound gave a CC50 of over 8.3 µM.
Consider `COP(=O)(Nc1cc(-c2ccccc2)sc1C(=O)O)c1ccc(C)cc1C` (stereo not drawn) [Compound 162], for which the results for the EC50 in series [2] and in series [3] were 0.1 to 8.3 µM and over 8.3 µM, respectively.
In series [1], `CCCCOP(=O)(Nc1cc(-c2ccc(Cl)cc2)sc1C(=O)O)c1ccc(C)cc1C` (stereo not drawn) [Compound 137] had an IC50 of 0.1 to 8.3 µM and an EC50 of 0.1 to 8.3 µM. In series [4], this compound displayed a CC50 at 72 hr of over 8.3 µM.
In series [1], `Cc1ccc(P(=O)(Nc2cc(-c3ccc(Cl)cc3)sc2C(=O)O)OCCc2ccc(F)cc2)c(C)c1` (stereo not drawn) [Compound 92] came in with a 50% inhibitory concentration (IC50) of 0.1 to 8.3 µM and an EC50 of 0.1 to 8.3 µM. Moreover, the CC50 at 72 hr in series [4] was over 8.3 µM.
Regarding `COCCOP(=O)(Nc1cc(-c2ccc(Cl)cc2)sc1C(=O)O)c1ccc(C)cc1C` (stereo not drawn) [Compound 85], in series [1], the IC50 was in the range of 0.1 to 8.3 µM and the EC50 was in the range of 0.1 to 8.3 µM. Further, in series [4], the CC50 at 72 hr was over 8.3 µM.
On to `CCOP(=O)(Nc1cc(-c2ccc(-c3cc4ncccc4o3)cc2)sc1C(=O)O)c1ccc(Cl)cc1F` (stereo not drawn) [Compound 160], for which the IC50 in series [1] is under 0.1 µM. In addition, the figures for the 50% effective concentration (EC50) in series [1], in series [2] and in series [3] were under 0.1 µM, under 0.1 µM and 0.1 to 8.3 µM, respectively. In the series “in vitro”, the CC50 was over 8.3 µM.
In the case of `COC1CCC(OP(=O)(Nc2cc(-c3ccc(Cl)cc3)sc2C(=O)O)c2ccc(C)cc2C)CC1` (stereo not drawn) [Compound 95], in series [1], the IC50 is 0.1 to 8.3 µM and the EC50 is 0.1 to 8.3 µM. In series [4], this compound registered a CC50 at 72 hr of over 8.3 µM.
`CCOP(=O)(Nc1cc(-c2ccc(C#Cc3cscn3)cc2)sc1C(=O)O)c1ccc(Cl)cc1Cl` (stereo not drawn) [Compound 24, 3-N-[(2,4-dichloro-phenyl)-phosphonamidateethyl ester]-5-(4-phenyl-ethynyl-1,3-thiazole)-2-thiophenecarboxylic acid] showed an IC50 in series [1] of under 0.1 µM. Also, the EC50 in series [1], in series [2] and in series [3] was 0.1 to 8.3 µM each time. Also, in “in vitro”, the CC50 was over 8.3 µM.
On to `COP(=O)(Nc1cc(-c2ccc(-c3cc4ccccc4s3)cc2)sc1C(=O)O)c1ccc(C)cc1C` (stereo not drawn) [Compound 153], for which the IC50 in series [1] is under 0.1 µM. For the same compound, the 50% effective concentration (EC50) is under 0.1 µM in series [1], under 0.1 µM in series [2] and 0.1 to 8.3 µM in series [3]. Also, in “in vitro”, the CC50 is over 8.3 µM.
`COP(=O)(Nc1cc(-c2ccc(Cl)cc2)sc1C(=O)O)c1ccc(C)cc1C` (stereo not drawn) [Compound 155]: in series [1], the IC50 is under 0.1 µM. For the same compound, the 50% effective concentration (EC50) in series [1] is 0.1 to 8.3 µM; in series [2] it was 0.1 to 8.3 µM; in series [3], over 8.3 µM. The compound also came in with a CC50 in the series “in vitro” of over 8.3 µM.
